Test results from US20130281467A1, “NOVEL MICROBICIDES” (SYNGENTA PARTICIPATIONS AG, priority 2010, published 2013).

Key:
[1] = test system: Blumeria graminis f. Sp. tritici (Erysiphe graminis f. sp. tritici); test: Fungicidal activity against Blumeria graminis f. sp. tritici / wheat / leaf disc preventative (powdery mildew on wheat); type: in vivo; conditions: foliar, wheat leaf segments, inoculated 1 day after application, compared to untreated, read-out: disease control
Protocol: Fungicidal Activity Against Blumeria graminis f. Sp. tritici (Erysiphe graminis f. sp. tritici)/Wheat/Leaf Disc Preventative (Powdery Mildew on Wheat)
Wheat leaf segments cv. Kanzler were placed on agar in a multiwell plate (24-well format) and sprayed with the formulated test compound diluted in water. The leaf disks were inoculated by shaking powdery mildew infected plants above the test plates 1 day after application. The inoculated leaf disks were incubated at 20° C. and 60% rh under a light regime of 24 h darkness followed by 12 h light/12 h darkness in a climate chamber and the activity of a compound was assessed as percent disease control compared to untreated when an appropriate level of disease damage appears on untreated check leaf segments (6-8 days after application).

[2] = test system: Botryotinia fuckeliana (Botrytis cinerea); test: Fungicidal activity against Botryotinia fuckeliana (Botrytis cinerea) / liquid culture (gray mould); type: cell-based; conditions: 3-4 days after application, read-out: disease control (inhibition of growth, photometrically)
Protocol: Fungicidal Activity Against Botryotinia fuckeliana (Botrytis cinerea)/Liquid Culture (Gray Mould) Conidia of the fungus from cryogenic storage were directly mixed into nutrient broth (Vogels broth). After placing a (DMSO) solution of test compound into a microtiter plate (96-well format), the nutrient broth containing the fungal spores was added. The test plates were incubated at 24° C. and the inhibition of growth was determined photometrically 3-4 days after application.

[3] = test system: Gaeumannomyces graminis; test: Fungicidal activity against Gaeumannomyces graminis / liquid culture (take-all of cereals); type: cell-based; conditions: 4-5 days after application, read-out: disease control (inhibition of growth, photometrically)
Protocol: (§1) Fungicidal Activity Against Gaeumannomyces graminis/Liquid Culture (Take-all of Cereals) Mycelial fragments of the fungus from cryogenic storage were directly mixed into nutrient broth (PDB potato dextrose broth). After placing a (DMSO) solution of test compound into a microtiter plate (96-well format), the nutrient broth containing the fungal spores iss added. The test plates were incubated at 24° C. and the inhibition of growth was determined photometrically 4-5 days after application.

[4] = test system: Glomerella lagenarium (Colletotrichum lagenarium); test: Fungicidal activity against Glomerella lagenarium (Colletotrichum lagenarium) / liquid culture (anthracnose); type: cell-based; conditions: Colletotrichum orbiculare, 3-4 days after application, read-out: disease control (inhibition of growth, photometrically)
Protocol: as §1, with “Glomerella lagenarium (Colletotrichum lagenarium)/Liquid” for “Gaeumannomyces graminis/Liquid”, “(Anthracnose) Conidia” for “(Take-all of Cereals) Mycelial fragments”, “was” for “iss”, “measured” for “determined”, “3-4” for “4-5”

[5] = test system: Monographella nivalis (Microdochium nivale); test: Fungicidal activity against Monographella nivalis (Microdochium nivale) / liquid culture (foot rot cereals); type: cell-based; conditions: 4-5 days after application, read-out: disease control (inhibition of growth, photometrically)
Protocol: as §1, with “Monographella nivalis (Microdochium nivale)/Liquid” for “Gaeumannomyces graminis/Liquid”, “(Foot Rot” for “(Take-all of”, “Conidia” for “Mycelial fragments”, “was” for “iss”

[6] = test system: Mycosphaerella arachidis (Cercospora arachidicola); test: Fungicidal activity against Mycosphaerella arachidis (Cercospora arachidicola) / liquid culture (early leaf spot); type: cell-based; conditions: 4-5 days after application, read-out: disease control (inhibition of growth, photometrically)
Protocol: as §1, with “Mycosphaerella arachidis (Cercospora arachidicola)/Liquid” for “Gaeumannomyces graminis/Liquid”, “(Early Leaf Spot) Conidia” for “(Take-all of Cereals) Mycelial fragments”, “was” for “iss”

[7] = test system: Mycosphaerella graminicola (Septoria tritici); test: Fungicidal activity against Mycosphaerella graminicola (Septoria tritici) / liquid culture (Septoria blotch); type: cell-based; conditions: Zymoseptoria tritici, 4-5 days after application, read-out: disease control (inhibition of growth, photometrically)
Protocol: as §1, with “Mycosphaerella graminicola (Septoria tritici)/Liquid” for “Gaeumannomyces graminis/Liquid”, “(Septoria Blotch) Conidia” for “(Take-all of Cereals) Mycelial fragments”, “was” for “iss”

[8] = test system: Phaeosphaeria nodorum (Septoria nodorum); test: Fungicidal activity against Phaeosphaeria nodorum (Septoria nodorum) / wheat / leaf disc preventative (glume blotch); type: in vivo; conditions: Parastagonospora nodorum, foliar, wheat leaf segments, inoculated 2 days after application, compared to untreated, read-out: disease control
Protocol: Fungicidal Activity Against Phaeosphaeria nodorum (Septoria nodorum)/Wheat/Leaf Disc Preventative (Glume Blotch) Wheat leaf segments cv. Kanzler were placed on agar in a multiwell plate (24-well format) and sprayed with the formulated test compound diluted in water. The leaf disks were inoculated with a spore suspension of the fungus 2 days after application. The inoculated test leaf disks were incubated at 20° C. and 75% rh under a light regime of 12 h light/12 h darkness in a climate cabinet and the activity of a compound was assessed as percent disease control compared to untreated when an appropriate level of disease damage appears in untreated check leaf disks (5-7 days after application).

[9] = test system: Puccinia recondita f. sp. tritici; test: Fungicidal activity against Puccinia recondita f. sp. tritici / wheat / leaf disc preventative (brown rust); type: in vivo; conditions: foliar, wheat leaf segments, inoculated 1 day after application, compared to untreated, read-out: disease control
Protocol: Fungicidal Activity Against Puccinia recondita f. sp. tritici/Wheat/Leaf Disc Preventative (Brown Rust) Wheat leaf segments cv. Kanzler were placed on agar in multiwell plates (24-well format) and sprayed with the formulated test compound diluted in water. The leaf disks were inoculated with a spore suspension of the fungus 1 day after application. The inoculated leaf segments were incubated at 19° C. and 75% rh under a light regime of 12 h light/12 h darkness in a climate cabinet and the activity of a compound was assessed as percent disease control compared to untreated when an appropriate level of disease damage appears in untreated check leaf segments (7-9 days after application).

[10] = test system: Pyrenophora teres; test: Fungicidal activity against Pyrenophora teres / barley / leaf disc preventative (net blotch); type: in vivo; conditions: foliar, barley leaf segments, inoculated 2 days after application, compared to untreated, read-out: disease control
Protocol: Fungicidal Activity Against Pyrenophora teres/Barley/Leaf Disc Preventative (Net Blotch) Barley leaf segments cv. Hasso were placed on agar in a multiwell plate (24-well format) and sprayed with the formulated test compound diluted in water. The leaf segments were inoculated with a spore suspension of the fungus 2 days after application. The inoculated leaf segments were incubated at 20° C. and 65% rh under a light regime of 12 h light/12 h darkness in a climate cabinet and the activity of a compound was assessed as disease control compared to untreated when an appropriate level of disease damage appears in untreated check leaf segments (5-7 days after application).

[11] = test system: Thanatephorus cucumeris (Rhizoctonia solani); test: Fungicidal activity against Thanatephorus cucumeris (Rhizoctonia solani) / liquid culture (foot rot, damping-off); type: cell-based; conditions: 3-4 days after application, read-out: disease control (inhibition of growth, photometrically)
Protocol: Fungicidal Activity Against Thanatephorus cucumeris (Rhizoctonia solani)/Liquid Culture (Foot Rot, Damping-Off) Mycelia fragments of a newly grown liquid culture of the fungus were directly mixed into nutrient broth (PDB potato dextrose broth). After placing a (DMSO) solution of the test compounds into a microtiter plate (96-well format), the nutrient broth containing the fungal material was added. The test plates were incubated at 24° C. and the inhibition of growth was determined photometrically 3-4 days after application.

[12] = test system: Alternaria solani; test: Fungicidal activity against Alternaria solani / tomato / leaf disc (early blight); type: in vivo; conditions: foliar, tomato leaf disks, inoculated 2 days after application, compared to untreated, read-out: disease control
Protocol: Fungicidal Activity Against Alternaria solani/Tomato/Leaf Disc (Early Blight) Tomato leaf disks cv. Baby were placed on agar in multiwell plates (24-well format) and sprayed with the formulated test compound diluted in water. The leaf disks were inoculated with a spore suspension of the fungus 2 days after application. The inoculated leaf disks were incubated at 23° C./21° C.

| SMILES | pest or weed control at 200 ppm [1] | inhibition at 200 ppm [2] | inhibition at 200 ppm [3] | inhibition at 200 ppm [4] | inhibition at 200 ppm [5] | inhibition at 200 ppm [6] | inhibition at 200 ppm [7] | pest or weed control at 200 ppm [8] | pest or weed control at 200 ppm [9] | pest or weed control at 200 ppm [10] | inhibition at 200 ppm [11] | melting point | pest or weed control at 200 ppm [12] |
| --- | --- | --- | --- | --- | --- | --- | --- | --- | --- | --- | --- | --- | --- |
| Clc1ccc(Cc2cccc(-c3ncc4c(n3)CCCC4)n2)cn1 [Compound 1, 2-[6-(6-chloropyridin-3-ylmethyl)-pyridin-2-yl]-5,6,7,8-tetrahydroquinazoline] | ≥ 80% | ≥ 80% | ≥ 80% | ≥ 80% | ≥ 80% | ≥ 80% | ≥ 80% | ≥ 80% | ≥ 80% | ≥ 80% | ≥ 80% | 115 to 120 °C | – |
| c1ccc(Cc2cccc(-c3ncc4c(n3)CCOC4)n2)cc1 [Compound 2] | ≥ 80% | ≥ 80% | ≥ 80% | ≥ 80% | – | ≥ 80% | ≥ 80% | ≥ 80% | ≥ 80% | ≥ 80% | ≥ 80% | 244 to 245 °C | – |
| Clc1cccc(Cc2cccc(-c3ncc4c(n3)CCOC4)n2)c1 [Compound 4] | ≥ 80% | ≥ 80% | ≥ 80% | ≥ 80% | ≥ 80% | ≥ 80% | ≥ 80% | ≥ 80% | ≥ 80% | ≥ 80% | ≥ 80% | 148 to 149 °C | – |
| Cc1ccccc1Cc1cccc(-c2ncc3c(n2)CCOC3)n1 [Compound 6, 2-[6-(2-methylbenzyl)-pyridin-2-yl]-7,8-dihydro-5H-pyrano[4,3-d]pyrimidine] | ≥ 80% | ≥ 80% | ≥ 80% | ≥ 80% | ≥ 80% | ≥ 80% | ≥ 80% | ≥ 80% | ≥ 80% | ≥ 80% | – | 132 to 133 °C | ≥ 80% |
| CC1(C)CCc2cnc(-c3cccc(Cc4ccccc4)n3)nc2C1 [Compound 11] | ≥ 80% | ≥ 80% | ≥ 80% | ≥ 80% | ≥ 80% | ≥ 80% | ≥ 80% | ≥ 80% | ≥ 80% | ≥ 80% | ≥ 80% | 226 to 228 °C | – |
| CC1(C)CCc2cnc(-c3cccc(Cc4cccc(C#N)c4)n3)nc2C1 [Compound 17] | – | ≥ 80% | ≥ 80% | ≥ 80% | ≥ 80% | ≥ 80% | ≥ 80% | ≥ 80% | – | ≥ 80% | ≥ 80% | 222 to 223 °C | – |
| CO/N=C1\CCc2nc(-c3cccc(Cc4ccccc4)n3)ncc2C1 [Compound 18] | ≥ 80% | ≥ 80% | ≥ 80% | ≥ 80% | – | ≥ 80% | ≥ 80% | ≥ 80% | ≥ 80% | ≥ 80% | ≥ 80% | 175 to 177 °C | – |
| CO[C@@H]1CCc2nc(-c3cccc(Cc4ccccc4)n3)ncc2C1 [Compound 25] | ≥ 80% | ≥ 80% | – | ≥ 80% | ≥ 80% | ≥ 80% | ≥ 80% | ≥ 80% | ≥ 80% | ≥ 80% | – | – | ≥ 80% |
| Clc1ccccc1Cc1cccc(-c2ncc3c(n2)CCCCC3)n1 [Compound 33] | ≥ 80% | ≥ 80% | ≥ 80% | ≥ 80% | ≥ 80% | ≥ 80% | ≥ 80% | ≥ 80% | ≥ 80% | ≥ 80% | ≥ 80% | – | ≥ 80% |
| CC(c1ccccc1)c1cccc(-c2ncc3c(n2)CC(C)(C)CC3)n1 (stereo not shown) [Compound 45] | – | ≥ 80% | ≥ 80% | ≥ 80% | ≥ 80% | ≥ 80% | ≥ 80% | ≥ 80% | – | ≥ 80% | ≥ 80% | 136 to 138 °C | – |
